According to patent US8729089B2 (Gilead Sciences, Inc., priority 2006, dated 2014):

Experiments:
[1] = tested on: HCV replicon in human hepatoma Huh-7 cell line; assay: Anti-HCV replicon assay (EC50, luciferase); assay type: cell-based; details: Hepatitis C virus, Huh-7, 72 h
In short: (§1)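 Cytotoxicity (CC50) measured by CellTiter-Glo and antiviral activity (EC50) by luciferase signal from lysed cells, both by luminescence. Replicon-bearing Huh-7 cells, 6000 per well, incubated 3 days at 37 °C with threefold-diluted compound (0.5% DMSO for DMSO-dissolved compounds).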

[2] = CC50 assay (CellTiter-Glo) in Huh-7 HCV replicon cells; assay type: cell-based, human; details: human, 3 days incubation, CellTiter-Glo readout
In short: as §1

| SMILES | EC50 [1] | CC50 at 3 days [2] |
| --- | --- | --- |
| CCOc1nc(NCc2ccc(F)cc2)nc2ccc(-c3ccc(C(=O)NC(C)(C)CN4CCOCC4)cc3)nc12 [Example 103, N-(1,1-Dimethyl-2-morpholin-4-yl-ethyl)-4-[4-ethoxy-2-(4-fluoro-benzylamino)-pyrido[3,2-d]pyrimidin-6-yl]-benzamide] | < 0.1 µM | < 5 µM |
| CCOc1nc(NCc2ccc(F)cc2)nc2ccc(-c3ccc(N4CCCC4=O)cc3)nc12 [Example 104, 1-{4-[4-Ethoxy-2-(4-fluoro-benzylamino)-pyrido[3,2-d]pyrimidin-6-yl]-phenyl}-pyrrolidin-2-one] | < 0.1 µM | 5 to 25 µM |
| CCOc1nc(NCc2ccc(F)cc2)nc2ccc(-c3ccc(NC(=O)C(C)(C)N)cc3)nc12 [Example 105, 2-Amino-N-{4-[4-ethoxy-2-(4-fluoro-benzylamino)-pyrido[3,2-d]pyrimidin-6-yl]-phenyl}-2-methyl-propionamide] | < 0.1 µM | < 5 µM |
| CCOc1nc(NCc2ccc(F)cc2F)nc2ccc(-c3ccc(C(=O)NC4CC4)cc3)nc12 [Example 107, N-Cyclopropyl-4-[2-(2,4-difluoro-benzylamino)-4-ethoxy-pyrido[3,2-d]pyrimidin-6-yl]-benzamide] | < 0.1 µM | 5 to 25 µM |
| CCOc1nc(NCc2ccc(F)cc2F)nc2ccc(-c3ccc(F)cc3)nc12 [Example 108, (2,4-Difluoro-benzyl)-{4-ethoxy-6-(4-fluoro-phenyl)-pyrido[3,2-d]pyrimidin-2-yl]-amine] | < 0.1 µM | 5 to 25 µM |
| CCOc1nc(NCc2ccc(S(N)(=O)=O)cc2)nc2ccc(-c3ccc(F)cc3)nc12 [Example 109, 4-{[4-ethoxy-6-(4-fluoro-phenyl)-pyrido[3,2-d]pyrimidin-2-ylamino]-methyl}-benzenesulfonamide] | < 0.1 µM | 5 to 25 µM |
| NS(=O)(=O)c1ccc(CNc2nc(OC3CCCC3)c3nc(-c4ccc(F)cc4)ccc3n2)cc1 [Example 110, 4-{[4-Cyclopentyloxy-6-(4-fluoro-phenyl)-pyrido[3,2-d]pyrimidin-2-ylamino]-methyl}-benzenesulfonamide] | < 0.1 µM | 5 to 25 µM |
| NS(=O)(=O)c1ccc(CNc2nc(OC3CCC3)c3nc(-c4ccc(F)cc4)ccc3n2)cc1 [Example 111, 4-{[4-Cyclobutoxy-6-(4-fluoro-phenyl)-pyrido[3,2-d]pyrimidin-2-ylamino]-methyl}-benzenesulfonamide] | < 0.1 µM | 5 to 25 µM |
| CCCc1nc(NCc2ccc(S(N)(=O)=O)cc2)nc2ccc(-c3ccc(F)cc3)nc12 [Example 112, 4-{[6-(4-Fluoro-phenyl)-4-propyl-pyrido[3,2-d]pyrimidin-2-ylamino]-methyl}-benzenesulfonamide] | < 0.1 µM | < 5 µM |
| CCOc1nc(N[C@H](C)c2ccccc2)nc2ccc(-c3ccc(F)cc3)nc12 [Example 113, [4-Ethoxy-6-(4-fluoro-phenyl)-pyrido[3,2-d]pyrimidin-2-yl]-(1-phenyl-ethyl)-amine] | < 0.1 µM | > 25 µM |
| CCOc1nc(NCc2nccs2)nc2ccc(-c3ccc(F)cc3)nc12 [Example 114, [4-Ethoxy-6-(4-fluoro-phenyl)-pyrido[3,2-d]pyrimidin-2-yl]-thiazol-2-ylmethyl-amine] | < 0.1 µM | 5 to 25 µM |
| CCOc1nc(NCc2cocn2)nc2ccc(-c3ccc(F)cc3)nc12 [Example 115, [4-Ethoxy-6-(4-fluoro-phenyl)-pyrido[3,2-d]pyrimidin-2-yl]-oxazol-4-ylmethyl-amine] | < 0.1 µM | 5 to 25 µM |
| CCOc1nc(NCc2ccon2)nc2ccc(-c3ccc(F)cc3)nc12 [Example 116, [4-Ethoxy-6-(4-fluoro-phenyl)-pyrido[3,2-d]pyrimidin-2-yl]-isoxazol-3-ylmethyl-amine] | < 0.1 µM | > 25 µM |
| CCOc1nc(NCc2ccc(CS(=O)(=O)NC(C)C)cc2)nc2ccc(-c3ccc(F)cc3)nc12 [Example 117, C-(4-{[4-Ethoxy-6-(4-fluoro-phenyl)-pyrido[3,2-d]pyrimidin-2-ylamino]-methyl}-phenyl)-N-isopropyl-methanesulfonamide] | < 0.1 µM | 5 to 25 µM |
| CCOc1nc(NCCc2ccccc2)nc2ccc(-c3ccc(F)cc3)nc12 [Example 118, [4-Ethoxy-6-(4-fluoro-phenyl)-pyrido[3,2-d]pyrimidin-2-yl]-phenethyl-amine] | < 0.1 µM | 5 to 25 µM |
| CCOc1nc(NCc2ccc(S(C)(=O)=O)cc2)nc2ccc(-c3ccc(F)cc3)nc12 [Example 119, [4-Ethoxy-6-(4-fluoro-phenyl)-pyrido[3,2-d]pyrimidin-2-yl]-(4-methanesulfonyl-benzyl)-amine] | < 0.1 µM | < 5 µM |

| SMILES | EC50 [1] | CC50 at 3 days [2] |
| --- | --- | --- |
| CCOc1nc(NCc2ccc(S(N)(=O)=O)cc2)nc2ccc(-c3ccc(NC(=O)[C@H]4CCNC4)c(F)c3)nc12 [Example 120, (S)-4-{[4-Ethoxy-6-(3-fluoro-4-(pyrrolidine-3-carboxamido)-phenyl)-pyrido[3,2-d]pyrimidin-2-ylamino]-methyl}-benzenesulfonamide] | < 0.1 µM | 5 to 25 µM |
| CCOc1nc(NCc2ccc(S(N)(=O)=O)cc2)nc2ccc(-c3ccc(NC(=O)[C@H]4CCNC4)cc3)nc12 [Example 121, (S)-4-{[4-Ethoxy-6-(4-(pyrrolidine-3-carboxamido)-phenyl)-pyrido[3,2-d]pyrimidin-2-ylamino]-methyl}-benzenesulfonamide] | < 0.1 µM | > 25 µM |
| CCOc1nc(NCc2ccc(S(N)(=O)=O)cc2)nc2ccc(-c3ccc(N4CCC(O)C4=O)cc3)nc12 (stereo not shown) [Example 122, 4-{[4-Ethoxy-6-(4-(3-hydroxy-2-oxopyrrolidin-1-yl)-phenyl)-pyrido[3,2-d]pyrimidin-2-ylamino]-methyl}-benzenesulfonamide] | < 0.1 µM | > 25 µM |
| CCOc1nc(NCc2ccc(S(N)(=O)=O)cc2)nc2ccc(-c3ccc(NC(=O)NCCN4CCOCC4)cc3)nc12 [Example 123, 4-{[4-Ethoxy-6-(4-(3-(2-(morpholin-4-yl)ethyl)ureido)-phenyl)-pyrido[3,2-d]pyrimidin-2-ylamino]-methyl}-benzenesulfonamide] | < 0.1 µM | 5 to 25 µM |
| CCOc1nc(NCc2ccc(S(N)(=O)=O)cc2)nc2ccc(-c3ccc(NC(=O)NCCN4CCCC4)cc3)nc12 [Example 124, 4-{[4-Ethoxy-6-(4-(3-(2-(pyrrolidin-1-yl)ethyl)ureido)-phenyl)-pyrido[3,2-d]pyrimidin-2-ylamino]-methyl}-benzenesulfonamide] | < 0.1 µM | 5 to 25 µM |
| CCOc1nc(NCc2ccc(S(N)(=O)=O)cc2)nc2ccc(-c3ccc(NC(=O)OCCN4CCCC4)cc3)nc12 [Example 125] | < 0.1 µM | < 5 µM |
| CCOc1nc(NCc2ccc(S(N)(=O)=O)cc2)nc2ccc(-c3cnc(N)s3)nc12 [Example 126, 4-{[4-Ethoxy-6-(2-aminothiazole-5-yl)-pyrido[3,2-d]pyrimidin-2-ylamino]-methyl}-benzenesulfonamide] | < 0.1 µM | < 5 µM |
| CCOc1nc(NCc2ccc(S(N)(=O)=O)cc2)nc2ccc(-c3ccc(F)c(Cl)c3)nc12 [Example 127, 4-{[4-Ethoxy-6-(3-chloro-4-fluorophenyl)-pyrido[3,2-d]pyrimidin-2-ylamino]-methyl}-benzenesulfonamide] | < 0.1 µM | < 5 µM |
| CCOc1nc(NCc2ccc(S(N)(=O)=O)cc2)nc2ccc(-c3ccc(NC(=O)N4CCOCC4)cc3)nc12 [Example 128, 4-{[4-Ethoxy-6-(4-(morpholine-4-carboxamido)-phenyl)-pyrido[3,2-d]pyrimidin-2-ylamino]-methyl}-benzenesulfonamide] | < 0.1 µM | 5 to 25 µM |
| CCOc1nc(NCc2ccc(S(N)(=O)=O)cc2)nc2ccc(-c3ccc(NC(=O)N4CCCC4)cc3)nc12 [Example 129, 4-{[4-Ethoxy-6-(4-(pyrrolidine-1-carboxamido)-phenyl)-pyrido[3,2-d]pyrimidin-2-ylamino]-methyl}-benzenesulfonamide] | < 0.1 µM | > 25 µM |
| CCOc1nc(NCc2ccc(S(N)(=O)=O)cc2)nc2ccc(-c3ccc(NC(N)=O)cc3)nc12 [Example 130, 4-{[4-Ethoxy-6-(4-ureidophenyl)-pyrido[3,2-d]pyrimidin-2-ylamino]-methyl}-benzenesulfonamide] | < 0.1 µM | 5 to 25 µM |
| CCOc1nc(NCc2ccc(S(N)(=O)=O)cc2)nc2ccc(-c3ccc(NC(=O)NC4CC4)cc3)nc12 [Example 131, 4-{[4-Ethoxy-6-(4-(3-cyclopropylureido)-phenyl)-pyrido[3,2-d]pyrimidin-2-ylamino]-methyl}-benzenesulfonamide] | < 0.1 µM | 5 to 25 µM |
| CCOc1nc(NCc2ccc(S(N)(=O)=O)cc2)nc2ccc(-c3cccc(NS(=O)(=O)N(C)C)c3)nc12 [Example 132] | < 0.1 µM | < 5 µM |
| CCOc1nc(NCc2ccc(S(N)(=O)=O)cc2)nc2ccc(-c3cccc(S(N)(=O)=O)c3)nc12 [Example 133, 4-{[4-Ethoxy-6-(3-(aminosulfonyl)-phenyl)-pyrido[3,2-d]pyrimidin-2-ylamino]-methyl}-benzenesulfonamide] | < 0.1 µM | 5 to 25 µM |
| CCOc1nc(NCc2ccc(S(N)(=O)=O)cc2)nc2ccc(-c3ccc(S(N)(=O)=O)cc3)nc12 [Example 134, 4-{[4-Ethoxy-6-(4-(aminosulfonyl)-phenyl)-pyrido[3,2-d]pyrimidin-2-ylamino]-methyl}-benzenesulfonamide] | < 0.1 µM | 5 to 25 µM |
| CCOc1nc(NCc2ccc(S(N)(=O)=O)cc2)nc2ccc(-c3ccc(NC(=O)C(C)(C)N)cc3)nc12 [Example 135, 4-{[4-Ethoxy-6-(4-((2-amino-2-propyl)-carboxamido)-phenyl)-pyrido[3,2-d]pyrimidin-2-ylamino]-methyl}-benzenesulfonamide] | < 0.1 µM | < 5 µM |
